According to US20230331707A1, “PROGRAMMED CELL NECROSIS INHIBITOR, PREPARATION METHOD THEREFOR, AND USE THEREOF” (Shanghai Institute of Organic Chemistry, Chinese Academy of …, priority 2020, published 2023):
Where two headings read alike, the source gives them in different places.

Assays:
FADD−/− Jurkat cells = experiment: Inhibition of TNF-induced programmed necrosis of FADD deficient Jurkat cells (Cell Titer-Glo viability); format: cell-based; settings: for EC50: Homo sapiens, Jurkat, FADD−/− Jurkat cells; for activity of inhibition of programmed necrosis compared with GSK2982772: human FADD-deficient Jurkat cells, TNFα alone or in combination with SM164
Excerpt: (§1) The adopted biological assay protocol was: the effect of compounds on programmed necroptosis of TNF-induced FADD (Fas-Associated Death Domain) deficient Jurkat cells and L929 cells.
(§2) In order to verify the inhibitory effect of the compounds of the present invention on programmed cell necrosis at the cellular level, cell types that is closely related to the RIP1 pathway, namely FADD deficient Jurkat cells (human peripheral blood leukemia T cell strain) and L929 cells, were selected. Two different stimulation methods were used: tumor necrosis factor (TNFα) was used alone, or TNFα was used in combination with mitochondria-derived cysteine aspartate activator (SMAC) SM164. Cells viability was calculated by detecting chemiluminescence values, thereby obtaining the biological activity of the compound on the inhibition of programmed cell necrosis.
(§3) Methods: FADD deficient Jurkat cells: FADD deficient Jurkat cells (human peripheral blood leukemia T cell line) were cultured in vitro. After growing to the logarithmic growth phase, the cells were collected, centrifuged at 1000 rpm for 5 min, the supernatant was discarded, and the cell concentration was adjusted to 2.5×10^5/mL. Cells were seeded into 384-well plates, 40 μl per well. 5 μL of SM164 (50 nM) diluted in cell culture medium and 5 μL of each compound were added to the corresponding wells. After pretreatment at 37° C. for 1 h, 5 μL of TNFα (50 ng/mL) diluted in cell culture medium was added to each well of the stimulation group, and 5 μL of the culture medium was added to the control group. The plate was cultured in a cell incubator (37° C., 5% CO2) for 14 h, and […] of Cell Titer-Glo solution was added to each well, then incubated for 30 min at room temperature, and intracellular ATP level was measured by detecting luminescence. The unstimulated DMSO control wells were taken as 100% cell viability. L929 cells: The L929 cells (mouse fibroblasts) were cultured in vitro, digested and diluted to 6.25×10^4/ml, and the cells were seeded into 384-well plates, 40 μl per well. The plate was placed in a cell incubator (37° C., 5% CO2) for 12 hours. 5 μL of SM164 (500 nM) diluted in cell culture medium and 5 μL of each compound were added to the corresponding wells. After pretreatment at 37° C. for 1 h, 5 μL of TNFα (500 ng/mL) diluted in cell culture medium was added to each well of the stimulation group, and 5 μL of the culture medium was added to the control group. After the plate was cultured for 14 h in a cell incubator (37° C., 5% CO2), 15 μl of Cell Titer-Glo solution was added to each well. The plate was incubated at room temperature for 30 min, and intracellular ATP level was measured by detecting luminescence. The unstimulated DMSO control wells were taken as 100% cell viability. EC50 values of the compounds were calculated using Prism Graphpad statistical software.

L929 cells = experiment: Inhibition of TNF-induced programmed necrosis of L929 cells (Cell Titer-Glo viability); format: cell-based, mouse; settings: Mus musculus, L929, L929 cells
Excerpt: as §1, §2, §3

[1] = 14 h, stimulated with TNFα + SM164, read-out: EC50 (μM) FADD−/− Jurkat cells (human) TNFα + SM164
[2] = stimulated with TNFα alone, read-out: EC50 (μM) FADD−/− Jurkat cells (human) TNFα
[3] = stimulated with TNFα + SM164, read-out: EC50 (μM) L929 cells (mouse) TNFα + SM164
[4] = stimulated with TNFα alone, read-out: EC50 (μM) L929 cells (mouse) TNFα

SMILES | EC50 (FADD−/− Jurkat cells; [1]) | EC50 (FADD−/− Jurkat cells; [2]) | EC50 (L929 cells; [3]) | EC50 (L929 cells; [4]) | activity of inhibition of programmed necrosis compared with GSK2982772 (FADD−/− Jurkat cells)
CNC(=O)c1ccc2c(cnn2-c2ccc(CNC(=O)c3cnn(C)c3Cc3ccccc3)cc2)c1 [QY-11-104] | 48.4 nM | 4.43 nM | – | – | –
CNC(=O)c1ccc2c(c1)ncn2-c1ccc(CC(=O)N2CCCC2c2ccccc2)cc1 (centres unmarked) [QY-7-65, N-methyl-1-(4-(2-oxo-2-(2-phenylpyrrolidin-1-yl)ethyl)phenyl)-1H-benzo[d]imidazol-5-carboxamide] | > 10000 nM | > 10000 nM | > 10000 nM | > 10000 nM | –
CCn1ncc(C(=O)NCc2ccc(-n3cnc4c(N)ncnc43)cc2)c1Cc1ccccc1 [QY-10-65] | 34.6 nM | 1.2 nM | 73.8 nM | 22.1 nM | –
COc1ccc2ncn(-c3ccc(CNC(=O)c4nnn(C)c4Cc4ccccc4)cc3)c2n1 [ET-0935] | 0.244 nM | 0.0235 nM | 0.001 nM | 0.001 nM | stronger activity
Cn1nc(Cl)c(C(=O)NCc2ccc(-n3cnc4c(N)ncnc43)cc2)c1Cc1ccccc1 [QY-12-100] | 0.734 nM | 0.172 nM | 4.63 nM | 0.458 nM | stronger activity
CNC(=O)c1ccc2c(c1)ncn2-c1ccc(CNC(=O)c2n[nH]c(Cc3ccccc3)n2)cc1 [ZSQ-13-46] | > 10000 nM | > 10000 nM | > 10000 nM | > 10000 nM | –
CNC(=O)c1ccc2c(c1)ncn2-c1ccc(CC(=O)N(C)Cc2cc(F)cc(F)c2F)cc1 [QY-5-40, N-methyl-1-(4-(2-(methyl(2,3,5-trifluorobenzyl)amino)-2-oxoethyl)phenyl)-1H-benzo[d]imidazol-5-formamide] | > 10000 nM | 2500 nM | > 10000 nM | 5000 nM | –
Cn1nc(C(=O)NCc2ccc(-n3ccc4c(N)nccc43)cc2)cc1Cc1ccccc1 [ZSQ-16-3] | > 10000 nM | 361 nM | > 10000 nM | 2320 nM | –
Nc1ncnc2c1ccn2-c1ccc(CNC(=O)c2n[nH]c(Cc3ccccc3)n2)cc1 [QY-8-60, N-(4-(4-amino-7H-pyrrolo[2,3-d]pyrimidine-7-yl)benzyl)-5-benzyl-1H-1,2,4-triazol-3-carboxamide] | > 10000 nM | > 10000 nM | > 10000 nM | > 10000 nM | –
Cn1ncc(C(=O)NCc2ccc(-c3ncnc4[nH]ccc34)cc2)c1Cc1ccccc1 [QY-11-80] | 482 nM | 35 nM | 3460 nM | 1970 nM | –
CC(c1ccc(-n2cnc3c(N)ncnc32)cc1)N1CCc2nn(C)c(Cc3ccccc3)c2C1=O (centres unmarked) [QY-12-90] | 0.813 nM | 0.13 nM | 42.7 nM | 2.41 nM | –
C[C@H](NC(=O)c1nnn(C)c1Cc1ccccc1)c1ccc(-n2cnc3c(N)ncnc32)cc1 [QY-13-50] | 0.001 nM | 0.001 nM | – | – | –
CNC(=O)c1ccc2c(c1)ncn2-c1ccc(CC(=O)NCc2c[nH]c3ccccc23)cc1 [QY-5-35, 1-(4-(2-(((1H-indole-3-yl)methyl)amino)-2-oxoethyl)phenyl)-N-methyl-1H-benzo[d]imidazol-5-formamide] | > 10000 nM | 2490 nM | > 10000 nM | > 10000 nM | –
Cn1ncc(C(=O)NC(C)(C)c2ccc(-n3cnc4c(N)ncnc43)cc2)c1Cc1ccccc1 [QY-12-102] | 28.5 nM | 7.52 nM | 6960 nM | 550 nM | –
Cn1nc2c(c1Cc1ccccc1)C(=O)N(Cc1ccc(-n3cnc4c(N)ncnc43)cc1)CC2 [ZSQ-22-96] | 2.26 nM | 0.203 nM | 38.6 nM | 8.38 nM | –
CNC(=O)c1ccc2c(c1)ncn2-c1ccc(CNC(=O)c2cc(Cc3ccccc3)n(C)n2)cc1 [QY-7-2B, 1-(4-((5-benzyl-1-methyl-1H-pyrazole-3-carboxamido)methyl)phenyl)-N-methyl-1H-benzo[d]imidazol-5-carboxamide] | 43.9 nM | 5.12 nM | 2020 nM | 312 nM | –
